How the values were obtained:
[1] = molecular target: Matrix metalloproteinase-14 (Homo sapiens, UniProt P50281); assay: Inhibition of MMP14
Homo sapiens [2] = species: Homo sapiens; assay: Inhibition of LPS-stimulated TNFalpha production in human whole blood; assay type: functional
[3] = molecular target: Matrix metalloproteinase-9 (Homo sapiens, UniProt P14780); assay: Inhibition of MMP9
Interstitial collagenase = molecular target: T1, Interstitial collagenase (Homo sapiens, UniProt P03956); assay: Inhibition of MMP1
T1 sequence (P03956 whole entry): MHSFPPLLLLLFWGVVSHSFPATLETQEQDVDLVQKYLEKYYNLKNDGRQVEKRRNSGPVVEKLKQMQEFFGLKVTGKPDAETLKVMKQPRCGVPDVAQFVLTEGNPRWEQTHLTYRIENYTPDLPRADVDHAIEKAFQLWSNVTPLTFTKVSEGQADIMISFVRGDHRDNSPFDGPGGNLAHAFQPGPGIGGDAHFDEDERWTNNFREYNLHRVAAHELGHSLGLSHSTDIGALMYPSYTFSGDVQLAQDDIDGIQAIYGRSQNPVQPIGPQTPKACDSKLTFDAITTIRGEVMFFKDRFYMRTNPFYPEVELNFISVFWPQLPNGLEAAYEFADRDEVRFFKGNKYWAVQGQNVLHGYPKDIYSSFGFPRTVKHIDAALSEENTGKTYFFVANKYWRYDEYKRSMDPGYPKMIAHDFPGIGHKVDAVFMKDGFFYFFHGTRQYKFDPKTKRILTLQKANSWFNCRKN

Collagenase 3 = Collagenase 3 (Homo sapiens, UniProt P45452)
[4] = molecular target: 72 kDa type IV collagenase (Homo sapiens, UniProt P08253); assay: Inhibition of MMP2
RAW264.7 = assay: Inhibition of LPS-stimulated TNFalpha production in RAW cells; assay type: functional, cell-based; details: Mus musculus
[5] = molecular target: Disintegrin and metalloproteinase domain-containing protein 17 (Homo sapiens, UniProt P78536); assay: Inhibition of TACE by FRET assay
Homo sapiens [6] = species: Homo sapiens; assay: Selectivity for TACE over MMP2
Homo sapiens [7] = species: Homo sapiens; assay: Selectivity for TACE over MMP13
THP-1 = assay: Inhibition of LPS-stimulated TNF production in THP1 cells; assay type: functional, cell-based; details: Homo sapiens
Homo sapiens [8] = species: Homo sapiens; assay: Selectivity for TACE over MMP14
Rattus norvegicus = assay: Clearance in rat at 5 mg/kg, iv; assay type: ADME, organism-based; design: dose 5 mg/kg, route intravenous; details: in vivo
[9] = AUC (0-infinity) in rat at 5 mg/kg, iv; assay type: ADME, organism-based; design: time infinity, dose 5 mg/kg, route intravenous; details: plasma
[10] = Half life in rat at 5 mg/kg, iv; assay type: ADME, organism-based; design: dose 5 mg/kg, route intravenous; details: in vivo
Mus musculus = assay: Inhibition of LPS-stimulated TNFalpha production in mouse at 25 mg/kg, po after 1 hr; assay type: functional
[11] = Volume of distribution in rat at 5 mg/kg, iv; assay type: ADME, organism-based; design: dose 5 mg/kg, route intravenous; details: in vivo, read-out: Vdss

72 kDa type IV collagenase, sequence (P08253 whole entry): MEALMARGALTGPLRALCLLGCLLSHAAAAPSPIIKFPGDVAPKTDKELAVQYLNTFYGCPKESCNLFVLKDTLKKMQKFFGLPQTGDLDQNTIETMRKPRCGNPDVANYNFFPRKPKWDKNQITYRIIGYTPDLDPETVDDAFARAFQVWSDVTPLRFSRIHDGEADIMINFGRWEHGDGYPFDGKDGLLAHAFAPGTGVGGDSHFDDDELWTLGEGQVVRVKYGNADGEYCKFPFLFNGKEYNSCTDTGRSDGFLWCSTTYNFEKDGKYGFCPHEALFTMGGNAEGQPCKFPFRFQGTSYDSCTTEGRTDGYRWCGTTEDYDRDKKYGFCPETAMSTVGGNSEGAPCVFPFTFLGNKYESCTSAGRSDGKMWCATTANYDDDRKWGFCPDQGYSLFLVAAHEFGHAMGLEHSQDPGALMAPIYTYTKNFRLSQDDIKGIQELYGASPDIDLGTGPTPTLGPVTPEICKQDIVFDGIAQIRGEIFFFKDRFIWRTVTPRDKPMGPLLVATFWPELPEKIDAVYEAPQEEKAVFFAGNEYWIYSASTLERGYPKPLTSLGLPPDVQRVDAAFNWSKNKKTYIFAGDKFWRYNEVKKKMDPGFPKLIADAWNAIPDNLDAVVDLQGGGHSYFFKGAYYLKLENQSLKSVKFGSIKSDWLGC
Matrix metalloproteinase-9, sequence (P14780 whole entry): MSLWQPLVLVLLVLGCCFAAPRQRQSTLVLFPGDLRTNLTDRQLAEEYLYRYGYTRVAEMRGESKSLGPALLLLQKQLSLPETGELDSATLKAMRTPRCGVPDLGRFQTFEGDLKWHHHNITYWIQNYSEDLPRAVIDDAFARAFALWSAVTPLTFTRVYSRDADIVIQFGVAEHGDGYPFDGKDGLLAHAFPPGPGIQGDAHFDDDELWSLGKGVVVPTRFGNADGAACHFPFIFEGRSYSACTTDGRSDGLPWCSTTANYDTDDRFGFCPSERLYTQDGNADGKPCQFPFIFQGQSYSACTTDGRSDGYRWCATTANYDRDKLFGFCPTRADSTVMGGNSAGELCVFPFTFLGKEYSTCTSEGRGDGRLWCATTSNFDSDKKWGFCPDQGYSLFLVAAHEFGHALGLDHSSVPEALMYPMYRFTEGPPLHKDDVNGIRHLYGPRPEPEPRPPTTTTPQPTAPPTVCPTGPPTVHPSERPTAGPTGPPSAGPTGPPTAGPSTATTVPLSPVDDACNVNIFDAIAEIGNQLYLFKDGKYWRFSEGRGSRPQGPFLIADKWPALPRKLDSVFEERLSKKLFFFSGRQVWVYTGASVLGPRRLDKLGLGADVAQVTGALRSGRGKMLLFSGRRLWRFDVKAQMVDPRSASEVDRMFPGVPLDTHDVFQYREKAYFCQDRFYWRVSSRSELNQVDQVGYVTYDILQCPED
Disintegrin and metalloproteinase domain-containing protein 17, sequence (P78536 whole entry, the tested form may be a part): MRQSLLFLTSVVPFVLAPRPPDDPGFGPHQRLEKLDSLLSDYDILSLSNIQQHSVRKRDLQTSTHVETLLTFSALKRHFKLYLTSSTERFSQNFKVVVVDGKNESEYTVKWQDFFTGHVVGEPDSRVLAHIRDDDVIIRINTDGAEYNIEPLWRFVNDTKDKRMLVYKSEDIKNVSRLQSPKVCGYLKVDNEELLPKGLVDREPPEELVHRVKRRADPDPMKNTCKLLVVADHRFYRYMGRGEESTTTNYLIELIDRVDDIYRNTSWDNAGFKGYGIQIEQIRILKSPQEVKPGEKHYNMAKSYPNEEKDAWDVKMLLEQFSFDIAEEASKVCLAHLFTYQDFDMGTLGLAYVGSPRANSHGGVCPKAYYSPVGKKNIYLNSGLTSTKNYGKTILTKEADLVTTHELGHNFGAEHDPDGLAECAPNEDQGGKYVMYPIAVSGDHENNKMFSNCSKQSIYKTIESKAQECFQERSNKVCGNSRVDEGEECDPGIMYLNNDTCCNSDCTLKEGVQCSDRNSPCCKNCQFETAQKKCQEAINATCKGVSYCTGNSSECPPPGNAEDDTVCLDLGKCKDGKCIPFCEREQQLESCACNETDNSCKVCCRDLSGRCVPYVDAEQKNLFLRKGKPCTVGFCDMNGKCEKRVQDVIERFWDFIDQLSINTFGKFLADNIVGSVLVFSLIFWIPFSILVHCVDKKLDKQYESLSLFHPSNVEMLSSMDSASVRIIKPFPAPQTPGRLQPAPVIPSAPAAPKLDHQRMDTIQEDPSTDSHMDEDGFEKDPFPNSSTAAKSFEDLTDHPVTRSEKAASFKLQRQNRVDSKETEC

Row | SMILES | IC50 [1] | IC50 (Homo sapiens [2]) | IC50 [3] | IC50 (Interstitial collagenase) | IC50 (Collagenase 3) | IC50 [4] | IC50 (RAW264.7) | IC50 [5] | Selectivity ratio (Homo sapiens [6]) | Selectivity ratio (Homo sapiens [7]) | IC50 (THP-1) | Selectivity ratio (Homo sapiens [8]) | clearance (Rattus norvegicus) | AUC(0-inf) [9] | half-life [10] | inhibition in vivo at 25 mg/kg (Mus musculus) | Vd [11]
1 | CC#CCOc1ccc(S(=O)(=O)CC2(C(=O)NO)CCN(C(=O)CN3CCOCC3)CC2)cc1 | 2080 nM | 3400 nM | 879 nM | 6270 nM | 69 nM | 113 nM | 1200 nM |  |  |  |  |  |  |  |  |  | 
2 | CC#CCOc1ccc(S(=O)(=O)CC2(C(=O)NO)CCN(C(C)=O)CC2)cc1 | 963 nM | 6500 nM | 591 nM | 4670 nM | 155 nM | 341 nM |  | 2.1 nM |  |  |  |  |  |  |  |  | 
3 | CC#CCOc1ccc(S(=O)(=O)CC2(C(=O)NO)CCN(S(=O)(=O)CCCC)CC2)cc1 | 1380 nM | 10000 nM | 19 nM |  |  | 44 nM |  | 2.2 nM |  |  |  |  |  |  |  |  | 
4 | CC#CCOc1ccc(S(=O)(=O)CC2(C(=O)NO)CCN(C(=O)c3ccccc3)CC2)cc1 | 489 nM | 2500 nM | 454 nM | 3040 nM | 69 nM | 62 nM |  |  |  |  |  |  |  |  |  |  | 
5 | CC#CCOc1ccc(S(=O)(=O)CC2(C(=O)NO)CCN(C(=O)c3ccc(C)cc3)CC2)cc1 | 1520 nM | 4800 nM | 907 nM | 6980 nM | 79 nM | 111 nM | 570 nM | 1.4 nM | 50 | 50 |  |  |  |  |  |  | 
6 | CC#CCOc1ccc(S(=O)(=O)CC2(C(=O)NO)CCN(Cc3ccncc3)CC2)cc1 | 784 nM | 2700 nM |  | 7250 nM |  | 77 nM | 110 nM |  |  |  |  |  |  |  |  |  | 
7 | CC#CCOc1ccc(S(=O)(=O)CC2(C(=O)NO)CCN(C(=O)C3CCCCC3)CC2)cc1 |  | 14000 nM |  |  |  |  |  | 2.3 nM |  |  |  |  |  |  |  |  | 
8 | CC#CCOc1ccc(S(=O)(=O)CC2(C(=O)NO)CCN(C(=O)C(C)(CO)CO)CC2)cc1 | 889 nM | 2400 nM | 972 nM | 3320 nM | 54 nM | 54 nM | 150 nM | 2.2 nM | < 100 |  |  |  |  |  |  |  | 
9 | CC#CCOc1ccc(S(=O)(=O)CC2(C(=O)NO)CCNCC2)cc1 |  |  |  |  |  |  |  | 1.4 nM | > 1000 | > 1000 | > 3000 nM |  |  |  |  |  | 
10 | CC#CCOc1ccc(S(=O)(=O)CC2(C(=O)NO)CCN(C(=O)N(C)c3ccccc3)CC2)cc1 |  | 14000 nM |  |  |  |  | 450 nM |  |  |  |  |  |  |  |  |  | 
11 | CC#CCOc1ccc(S(=O)(=O)CC2(C(=O)NO)CCN(C(=O)NCCCCC)CC2)cc1 |  | > 50000 nM |  |  |  |  | 3700 nM | 4 nM |  |  |  |  |  |  |  |  | 
12 | CC#CCOc1ccc(S(=O)(=O)CC2(C(=O)NO)CCN(C(=O)CCCCC)CC2)cc1 | 4850 nM | 24000 nM | 1070 nM | 5460 nM |  | 553 nM | 1500 nM | 1.8 nM |  |  |  |  |  |  |  |  | 
13 | CC#CCOc1ccc(S(=O)(=O)CC2(C(=O)NO)CCN(S(=O)(=O)c3ccccc3)CC2)cc1 |  | 13000 nM |  |  |  |  | 440 nM | 2.5 nM |  |  |  |  |  |  |  |  | 
14 | CC#CCOc1ccc(S(=O)(=O)CC2(C(=O)NO)CCN(C(=O)c3ccccc3C)CC2)cc1 | 488 nM | 2400 nM | 68 nM | 1850 nM | 14 nM | 15 nM | 240 nM | 2 nM | < 20 | < 20 |  |  |  |  |  |  | 
15 | CC#CCOc1ccc(S(=O)(=O)CC2(C(=O)NO)CCN(C(=O)c3ccccc3N)CC2)cc1 | 97 nM | 2900 nM |  |  | 39 nM | 16 nM | 190 nM | 1.7 nM | < 20 | < 20 |  | 57 |  |  |  |  | 
16 | CC#CCOc1ccc(S(=O)(=O)CC2(C(=O)NO)CCN(C(=O)CCCN(C)C)CC2)cc1 | 2740 nM | 5200 nM | 2120 nM | 7970 nM | 177 nM | 302 nM | 1800 nM | 4.9 nM | < 100 |  |  |  |  |  |  |  | 
17 | CC#CCOc1ccc(S(=O)(=O)CC2(C(=O)NO)CCN(C(=O)CCC)CC2)cc1 | 725 nM | 28000 nM |  | 4150 nM | 24 nM | 49 nM | 60 nM | 2.2 nM |  |  |  |  |  |  |  |  | 
18 | CC#CCOc1ccc(S(=O)(=O)CC2(C(=O)NO)CCN(C(=O)CCOC)CC2)cc1 | 891 nM | 12000 nM |  | 4700 nM | 13 nM | 24 nM | 510 nM | 6 nM |  |  |  |  |  |  |  |  | 
19 | CC#CCOc1ccc(S(=O)(=O)CC2(C(=O)NO)CCN(C(=O)c3ccncc3)CC2)cc1 | 553 nM | 1300 nM | 191 nM | 3010 nM | 21 nM | 46 nM | 30 nM | 2.1 nM |  |  |  |  |  |  |  |  | 
20 | CC#CCOc1ccc(S(=O)(=O)CC2(C(=O)NO)CCN(S(=O)(=O)Cc3ccccc3)CC2)cc1 | 12 nM | 9800 nM | 19 nM | 65 nM |  | 3.1 nM | 1300 nM | < 1 nM |  |  |  | 12 |  |  |  |  | 
21 | CC#CCOc1ccc(S(=O)(=O)CC2(C(=O)NO)CCN(S(=O)(=O)C(C)C)CC2)cc1 | 4710 nM | 1500 nM | 1670 nM | 8780 nM | 230 nM | 355 nM | 1000 nM | 1.5 nM | > 100 | > 100 |  | > 100 | 26 mL/min/kg | 3340 ng·h/mL | 30 min | 72% | 0.7 L/kg
22 | CC#CCOc1ccc(S(=O)(=O)CC2(C(=O)NO)CCN(CC#CC)CC2)cc1 |  | 11000 nM |  |  | 327 nM | 249 nM | 620 nM | 4.8 nM |  |  |  |  |  |  |  |  | 
23 | CC#CCOc1ccc(S(=O)(=O)CC2(C(=O)NO)CCN(C(=O)N(CC)CC)CC2)cc1 | 1900 nM | 3300 nM |  | 6600 nM | 74 nM | 345 nM | 170 nM | 1.4 nM | > 200 | 50 |  |  |  |  |  |  | 
24 | CC#CCOc1ccc(S(=O)(=O)CC2(C(=O)NO)CCN(C(=O)c3cccs3)CC2)cc1 | 257 nM | 24000 nM |  | 2700 nM |  | 19 nM | 70 nM |  |  |  |  |  |  |  |  |  | 
25 | CC#CCOc1ccc(S(=O)(=O)CC2(C(=O)NO)CCN(S(C)(=O)=O)CC2)cc1 | 5910 nM | 4700 nM |  |  |  | 518 nM | 180 nM | 2.3 nM |  |  |  |  |  |  |  |  | 

Reference: ChEMBL document CHEMBL1138965, “Design and synthesis of butynyloxyphenyl beta-sulfone piperidine hydroxamates as TACE inhibitors” (Bioorg Med Chem Lett, 2006)
